{"source": "patent US5231182A", "about": "“Method of making certain aryl containing amides” (American Cyanamid Company, priority 1991, dated 1993)", "key": {"PAF receptor": {"molecular_target": "T1, PAF receptor (Oryctolagus cuniculus, UniProt G1TEI7)", "T1 construct": "centrifuged at 800 rpm for 10-15 minutes at room temperature to recover the platelet rich plasma (PRP); endogenous in cells; host or cells: platelets in citrated platelet rich plasma from male New Zealand White rabbits (Oryctolagus cuniculus)", "T1 sequence (G1TEI7 1-342)": "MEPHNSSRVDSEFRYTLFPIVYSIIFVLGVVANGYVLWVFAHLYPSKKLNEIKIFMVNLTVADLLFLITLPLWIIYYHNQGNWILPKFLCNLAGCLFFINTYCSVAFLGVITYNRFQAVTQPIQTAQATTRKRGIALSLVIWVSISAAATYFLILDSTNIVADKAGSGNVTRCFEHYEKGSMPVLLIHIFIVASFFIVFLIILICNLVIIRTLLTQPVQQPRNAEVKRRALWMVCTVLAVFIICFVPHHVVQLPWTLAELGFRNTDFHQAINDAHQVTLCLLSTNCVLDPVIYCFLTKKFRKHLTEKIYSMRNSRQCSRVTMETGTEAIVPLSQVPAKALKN", "assay": "Platelet Activating Factor antagonism in vitro: inhibition of PAF induced platelet aggregation in rabbit platelet rich plasma", "format": "cell-based, rabbit (New Zealand White)", "procedure": "Test compounds are evaluated as PAF receptor antagonists in vitro by measuring inhibition of PAF (platelet activating factor) induced platelet aggregation. Platelet aggregation is measured by a modification of the method described in […], et. al., J. Med. Chem., 27 1174, 1984. […] All syringes and pipets are plastic. The blood is gently mixed and immediately centrifuged at 800 rpm for 10-15 minutes at room temperature to recover the platelet rich plasma (PRP). Platelet poor plasma (PPP) is prepared by centrifuging PRP at 2800 rpm for 10 minutes at room temperature. Dilutions (1:3000) of PRP in Isoton® diluent are made and platelet counts are determined on a Coulter Thrombocounter which is standardized with platelet reference standards (Interscience Platelet Control, Portland, Oreg.). PRP platelet counts are adjusted to approximately 400,000-500,000 platelets/μl by the addition of PPP. L-PAF (Platelet Activating Factor) is obtained from Calbiochem. […] All solutions are made up in plastic tubes, stored on ice and protected from heat and light. Solutions are prepared fresh or frozen at -20° C. and used within 48 hours. Incubation mixtures consisted of 400 μl PRP, 50 μl of saline diluent or test compound and 50 μl of PAF agonist. More specifically, 400 μl of PRP is stabilized in a cuvette for 1-2 minutes at 37° C. in the aggregometer to achieve a stable baseline, then 50 μl of saline or test compound is added and incubated for 5 minutes before addition of the challenge concentration of PAF. A submaximal concentration is determined from the dose response curve for PAF for that experiment. In general, the challenge concentration is 5E-8 or IE-7M. Aggregation is monitored for 5 minutes. Samples containing test compound or diluent are run simultaneously for comparison. Test compounds are initially evaluated at a screening concentration of 1E-5M. […] The recording equipment consists of a dual channel Chronolog aggregometer connected to a dual channel 10MV full scale deflection Omniscribe chart recorder (Houston Instruments). The chart recorder is calibrated daily with the use of a suspension of Bio-Rad latex beads (S-X 12 400 mesh) which has a density slightly greater than rabbit PRP. […] These limits defined a full scale deflection. The aggregation traces are analyzed by a digitizing method (C. Kohler and B. Zoltan, J. Pharm. Methods, 12, 113, 1984) with x, y coordinate data stored in a computer file. A suitable program computes parameters of interest such as the magnitude of aggregation. | ^a dose of compound that gives the indicated % inhibition. | ^b the % inhibition of PAF induced platelet aggregation. | ^c the molar concentration of compound that will inhibit 50% of the | platelet aggretation induced by PAF given at the indicated PAF challenge | concentration."}, "PAF induced lethality": {"test_system": "PAF induced lethality", "assay": "PAF induced lethality in mice", "format": "in vivo", "settings": "PAF 150 μg/kg IV", "procedure": "PAF given I.V. to mice causes an immediate hypotensive shock leading to death in 1 hour or less. Compounds are given intraperitoneally or P.O. at various times before the PAF challenge. Animals alive after 2 hours are counted and the activity of test compounds expressed as % survival corrected for any control (saline treated) animals which survived the PAF challenge.\nEffect of Compound Given I.V. or P.O. in Protecting\nMice from a Lethal Challenge of PAF^a\n^a lethal challenge of PAF is 150 μg/kg IV."}, "[1]": {"test_system": "Endotoxin induced shock and mortality", "assay": "Endotoxin induced shock and mortality in mice: high dose acute mouse endotoxemia", "format": "in vivo, Male Balb/c mice", "settings": "administered ip prior to a lethal ip injection of endotoxin", "source_text": "(§1) Endotoxin administration produces a shock-like state characterized by vascular permeability changes, hypotension, neutropenia, thrombocytopenia,multiple organ damage and death. The major mediators released after endotoxin injection are TNF (tumor necrosis factor), PAF (platelet activating factor) and […] (interleukin I). PAF administration mimics the signs and symptoms of endotoxin induced shock and death and endotoxin also induces the release of PAF. Therefore, the effects of endotoxin should be blocked with a PAF antagonist.\n(§2) Male Balb/c mice (approximately 20 g) are obtained from Charles River Laboratories and used after a one-two week acclimation period. Animals are given (ip) test compound dissolved in saline or water (sonicated and heated) at different time intervals prior to and after the ip injection of endotoxin (usually 2 hours before LPS endotoxin, and 3-4 hours after). Sigma E. Coli endotoxin, 0111:B4, phenol extraction, catalog #L2630 is used for these studies.\nThis LD value is approximately 50 mg/kg i.p. The number of survivors in each group (control or treated with test compound) is recorded after 24, 48 or 72 hours and the treated groups (receiving test compound and endotoxin) are compared with the untreated, control group (receiving endotoxin only) or saline control (receiving saline and endotoxin).\nEffect of Compounds Given I.P. in High Dose Acute Mouse Endotoxemia […]"}, "[2]": {"test_system": "Endotoxin induced shock and mortality", "assay": "Endotoxin induced shock and mortality in mice: low dose, chronic mouse endotoxemia", "format": "in vivo, Male Balb/c mice", "settings": "dose 10 mg/kg i.p.", "source_text": "as §1, §2\nFor the chronic endotoxin shock model, a lower dose of endotoxin is administered (generally 15 to 20 mg/kg i.p). This dose gives an LD80 in two to four days following LPS administration. Test compounds are given 2 hours before LPS and 3-4 hours after on the first day, followed by 3 or 4 consecutive days of BID dosing. The number of survivors in each group is recorded each day for a period of 5 to 7 days.\nEffect of Compounds Given i.p. in Low Dose, Chronic Mouse Endoxemia"}}}
{"smiles": "CCCCCCCCCCCCCCOc1cccc(CC(=O)Nc2cccc(C[n+]3csc(C)c3)c2)c1.[Br-]", "note": "[5-Methyl-3-[[3-[[[3-(tetradecyloxy)phenyl]acetyl]amino]phenyl]methyl]thiazolium bromide]", "values": [{"measurement": "% INH (inhibition of PAF induced platelet aggregation)", "setting": "PAF receptor; dose .00001 M, PAF chall conc 5E-9 M", "value": 100.0, "unit": "%"}, {"measurement": "PAF antagonism (in words)", "setting": "PAF receptor; in vitro platelet aggregation studies", "value": "known to be a PAF antagonist"}, {"measurement": "% Survival", "setting": "PAF induced lethality; P.O. 5 mg/kg", "value": 40, "unit": "%"}, {"measurement": "% Survival", "setting": "PAF induced lethality; P.O. 20 mg/kg", "value": 59, "unit": "%"}, {"measurement": "activity against lethal ip injection of endotoxin", "setting": "[1]", "value": "did show some activity"}, {"measurement": "% Survival", "setting": "[2]; day 0", "value": 100, "unit": "%"}, {"measurement": "No Surv./tot.", "setting": "[2]; day 0", "value": "30/30"}, {"measurement": "% Survival", "setting": "[2]; day 1", "value": 100, "unit": "%"}, {"measurement": "No Surv./tot.", "setting": "[2]; day 1", "value": "30/30"}, {"measurement": "% Survival", "setting": "[2]; day 2", "value": 63, "unit": "%"}, {"measurement": "No Surv./tot.", "setting": "[2]; day 2", "value": "19/30"}, {"measurement": "% Survival", "setting": "[2]; day 3", "value": 46, "unit": "%"}, {"measurement": "No Surv./tot.", "setting": "[2]; day 3", "value": "14/30"}, {"measurement": "% Survival", "setting": "[2]; day 4", "value": 43, "unit": "%"}, {"measurement": "No Surv./tot.", "setting": "[2]; day 4", "value": "13/30"}, {"measurement": "% Survival", "setting": "[2]; day 5", "value": 43, "unit": "%"}, {"measurement": "No Surv./tot.", "setting": "[2]; day 5", "value": "12/30"}, {"measurement": "No Surv./tot.", "setting": "[2]; day 6", "value": "12/30"}, {"measurement": "% Survival", "setting": "[2]; day 7", "value": 43, "unit": "%"}, {"measurement": "No Surv./tot.", "setting": "[2]; day 7", "value": "12/30"}]}
